Assay results as given in article PMC8273887 (Journal of Medicinal Chemistry, 2021).
“Also recorded” adds a separate entry of the source. Blank lines part the entries; values can stand above or below the substance they belong to. Bridge positions count the residues as written; N and C are the ends. Ends that are not written are not given here.

Columns and labels:
CXCR4 = target: T1, CXCR4 (Homo sapiens, UniProt P61073); assay: Inositol 1 phosphate (IP1) accumulation assay (HTRF) in COS-7 cells transfected with CXCR4; assay type: cell-based; settings: COS-7 transiently co-transfected with CXCR4-eYFP and chimeric GαΔ6qi4myr; stimulation 1 h, 37 °C, triplicate; HTRF; n ≥ 2 independent experiments; read-out: EC50 (CXCR4 activation, IP1 accumulation)
T1 construct: expressed in transfected cells; host or cells: COS-7 (African green monkey), transient co-transfection with GαΔ6qi4myr
Text: CXCR4 is a member of the G protein-coupled receptor (GPCR) family[58] and proposed as a target receptor for TFF3 to mediate wound healing.[30],[39] We therefore pharmacologically characterized TFF3(C^57Acm) and TFF3 homodimer at CXCR4. We used a chimeric Gαiq protein to switch the pathway to the Gαq signaling, which leads to the activation of the phospholipase and allows measurement of CXCR4 activation through the production of inositol 1 phosphate (IP1).[61]−[63] We measured IP1 accumulation upon stimulation with TFF3(C^57Acm) and TFF3 homodimer in fibroblast-like COS-7 cells transiently transfected with CXCR4.[58] This is a competitive immunoassay, based on the HTRF technology, where native IP1 produced by cells compete with labeled IP1 (acceptor) for binding to anti-IP1-cryptate (donor). The specific signal (i.e., Förster resonance energy transfer, FRET) is inversely proportional to the concentration of IP1 in the sample. The calculation of the fluorescence ratio eliminates possible medium interferences.[64]
COS-7 cells (fibroblast-like cells from African green monkey) were transiently co-transfected with the CXCR4 C-terminally fused to eYFP in pVitro2 vector and the untagged chimeric G protein GαΔ6qi4myr in pcDNA3.1 plasmid using Metafectene Pro according to manufacturer’s protocol. The cells were cultured in DMEM with higher glucose and supplemented with 10% FCS without any antibiotics at 37 °C and 5% CO2 in 95% humidity. Cisbio IP-One Gq assay kit was used according to previous description with minor modifications to measure activity.[80] Briefly, a standard curve was prepared in HBSS (Hanks’ balanced salt solution) with 20 mM LiCl to determine the linear range of the assay and 10 000 cells/well were cultured overnight in a 384-well flat white plate (Greiner Bio-one GmbH, Frickenhausen, Germany). TFF3 and its homodimer as well as CXCL12 were diluted in HBSS containing 20 mM LiCl. Stimulation was carried out for 1 h in triplicate at 37 °C. Subsequently, 3 μL of IP1-d2 and 3 μL of Ab-cryptate in lysis buffer were added to the wells and incubated on a tumbler for 60 min at 25 °C. Fluorescence was then measured at 620 and 665 nm and the HTRF (homogeneous time-resolved fluorescence) ratio (665/620 nm) was calculated. Data analysis was performed with Prism (version 7, GraphPad, La Jolla). Tested compounds were normalized to CXCL12 wild type, with the highest HTRF ratio set to 0% and the lowest HTRF ratio set to 100% response. […] The final concentration range of 10^–12 to 10^–5 M to CXCL12 and 1 or 10 μM to TFF3(C^57Acm) and TFF3 homodimer was achieved by adding the compounds from a threefold concentrated stock solution.

pepsin = assay: simulated gastric fluid (SGF, containing pepsin, pH 1.3); settings: porcine, 37 °C, up to 24 h
porcine pancreatin = assay: simulated intestinal fluid (SIF, containing pancreatic enzymes, pH 6.8); settings: 37 °C, up to 24 h
trypsin = assay: trypsin
[1] = Stability in simulated gastric fluid (SGF); assay type: in vitro ADME, porcine
Description: (§1) We exposed TFF3(C^57Acm) and TFF3 homodimer to simulated gastric fluid (SGF, containing pepsin, pH 1.3) and simulated intestinal fluid (SIF, containing pancreatic enzymes, pH 6.8), and monitored the mixture over 24 h by analytical RP-HPLC and MS. The N- and C-termini of TFF3 and its homodimer were readily truncated in both SGF and SIF (Figure 4A,B). In SGF, TFF3 was cleaved at Leu^6/Ser^7 followed by cleavage at Glu^54/Ala^55 (t1/2 < 5 min). In SIF, TFF3 was cleaved first at Thr^58/Phe^59 followed by cleavage at Leu^6/Ser^7, Glu^56/Cys^57, and Ala^55/Glu^56 (t1/2 < 5 min). TFF3 homodimer, in both SGF (t1/2 ∼ 40 min) and SIF (t1/2 < 5 min), was first broken down to monomeric TFF3 through simultaneous cleavage at Leu^6 and Glu^54 or Ala^55, eventually leading to the same metabolites as TFF3 (Figure 4B).
(§2) Simulated gastric fluid (SGF) was prepared by dissolving 20 mg of NaCl and 8 mg of pepsin in 70 μL of concentrated HCl (32%), and the volume was diluted to 10 mL with Milli-Q water (pH 1.3).[76],[77] Simulated intestinal fluid (SIF) was prepared by dissolving 68 mg of KH2PO4 in 500 μL of Milli-Q water followed by the addition of 800 μL of 0.2 M NaOH and 100 mg of porcine pancreatin, and the volume was adjusted to 10 mL with Milli-Q water (pH 6.8).[76],[77] Peptide stock solution (1 mM; 15 μL) was added to SGF (285 μL) or SIF (285 μL) and incubated at 37 °C. Samples (30 μL) from SGF and SIF were taken at 0, 5, 15, and 30 min and 1, 2, 4, 8, and 24 h timepoints and subsequently quenched with 30 μL of 0.2 M Na2CO3 (SGF) or 30 μL of 5% aqueous TFA (SIF). The samples were analyzed by analytical RP-HPLC (30 μL) and/or LC-MS (20 μL). The amount of peptide remaining was determined by measuring the peak area and expressing it as a % of the peak area at time 0. Peptide half-life (t1/2) was determined from the peptide degradation profiles using an exponential one-phase decay fit in Prism (version 7, GraphPad, La Jolla). LC-MS analysis was performed in a Q-Star Pulsar mass spectrometer (SCIEX, Ontario, Canada), and the raw data spectra were processed using the peptide reconstruction tool in the BioAnalyst software to identify the mass of the metabolites. The stability of the disulfide bonds was assessed through incubation of the peptides (10 μM) with 10 equiv of reduced glutathione (GSH; 100 μM) in sodium phosphate (50 mM) buffer at pH 7.2. Samples were taken at timepoints 0, 4, 8, and 24 h, quenched by adding 10% TFA, and analyzed by analytical RP-HPLC using an analytical C3 column (Agilent Zorbax SB-C3, 5 μm, 2.1 mm × 250 mm, 300 Å).

[2] = Stability in simulated intestinal fluid (SIF); assay type: in vitro ADME; settings: pig, simulated intestinal fluid (SIF) with porcine pancreatin
Description: as §1, §2

SH-SY5Y cells = assay: Antiapoptotic assay (etoposide-induced cell death, caspase-3/7 activity); assay type: cell-based, human; settings: etoposide 10 μM and peptide 10 μM added at the same time, caspase-3/7 activity after 6 h, n ≥ 3 independent experiments
Description: (A) Cell death was induced with etoposide (10 μM), and cells were treated with 10 μM of TFF3. Etoposide and TFF3 were added at the same time. Caspase-3/7 activity was measured after 6 h. […] Z-DEVD-FMK (50 μM; caspase-3 inhibitor) was used as the positive control. E: etoposide, E + C3I: etoposide + caspase-3 inhibitor. One-way analysis of variance (ANOVA) followed by Dunnett correction was performed to assess differences between treated cells and etoposide only. *p < 0.05, **p < 0.01.
SH-SY5Y cells were seeded (13–15 × 10^3 cells/well) in 96-well microplates in DMEM with 10% (v/v) fetal calf serum (FCS; Gibco), 2 mM L-glutamine, and 100 units/mL penicillin/streptomycin. The media was replaced with low riboflavin, complete Ham’s F12 medium with 10% (v/v) fetal calf serum, 2 mM L-glutamine, and 100 units/mL penicillin/streptomycin before the live-cell imaging. Cells were treated with the etoposide or the caspase-3 inhibitor or TFF3(C^57Acm) or TFF3 homodimer in the presence of IncuCyte caspase-3/7 green apoptosis reagent. Data were acquired using an IncuCyte ZOOM instrument with standard scan type setting (4 images per well) every 2 h for 48 h.

T1 sequence (P61073 whole entry): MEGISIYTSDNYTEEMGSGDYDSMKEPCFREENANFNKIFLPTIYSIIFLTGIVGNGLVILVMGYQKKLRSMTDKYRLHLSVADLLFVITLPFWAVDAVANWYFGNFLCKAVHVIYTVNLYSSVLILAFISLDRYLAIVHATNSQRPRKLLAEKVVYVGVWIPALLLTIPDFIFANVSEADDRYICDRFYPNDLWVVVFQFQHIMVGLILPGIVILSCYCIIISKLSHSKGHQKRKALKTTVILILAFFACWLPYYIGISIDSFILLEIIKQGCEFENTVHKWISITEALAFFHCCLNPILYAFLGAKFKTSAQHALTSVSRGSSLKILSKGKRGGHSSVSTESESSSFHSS

Substance: CXCL12: natural CXCR4 ligand; recombinant human CXCL12 from E. coli with additional N-terminal methionine; positive control [reference compound]
EC50 (CXCR4): 5.9 nM

Substance: EEYVGLSANQCAVPAKDRVDCGYPHVTPKECNNRGCCFDSRIPGVPWCFKPLQEAEC(Acm)TF
cleaved bond (pepsin): Leu6-Ser7, first_seen; also recorded: Glu54-Ala55
cleaved bond (porcine pancreatin): Thr58-Phe59, first_seen; also recorded: Leu6-Ser7; also recorded: Glu56-Cys57; also recorded: Ala55-Glu56

Substance: SANQCAVPAKDRVDCGYPHVTPKECNNRGCCFDSRIPGVPWCFKPLQE
not cleaved (pepsin): stable in SGF with a half-life over 24 h

Substance: SANQCAVPAKDRVDCGYPHVTPKECNNRGCCFDSRIPGVPWCFKPLQE-NH2 (disulfide 5-31, 15-30, 25-42) [TFF3_7-54]
stability in SGF over 24 h (in words) ([1]; SGF with pepsin, pH 1.3, 37 °C, 24 h, RP-HPLC and MS): remained stable
half-life at 50 μM ([1]; simulated gastric fluid (SGF) with pepsin, pH 1.3, 15 μL of 1 mM stock in 285 μL, 37 °C, monitored over 24 h, RP-HPLC/LC-MS, read-out: half-life in SGF): > 24 h
half-life at 50 μM ([2]; pH 6.8, 15 μL of 1 mM stock in 285 μL, 37 °C, monitored over 24 h, RP-HPLC/LC-MS, read-out: half-life in SIF): > 24 h
metabolised at 24 h, 50 μM ([2]; pH 6.8, 37 °C, 24 h, RP-HPLC/MS, read-out: degradation in SIF within 24 h): ~25%
reduction of etoposide-induced cell death (caspase-3/7 active objects) (SH-SY5Y cells): active in the anti-apoptosis assay, equivalent to TFF3 and TFF3 homodimer

The next lines start with results.

not cleaved (pepsin): stable in SGF for 24 h
Substance: QCAVPAKDRVDCGYPHVTPKECNNRGCCFDSRIPGVPWCFK
cleaved bond (trypsin): cleavages at Lys^16, Arg^18, and Arg^41; also recorded: Arg41-Ile42
fragment found (trypsin): Glu^30-Arg^34; also recorded: Ile^42-Lys^50

not cleaved (porcine pancreatin): remained stable even after 24 h
Substance: S^7ANQCAVPAKDRVDCGYPHVTPKECNNRGCCFDSRIPGVPWCFKPLQEA^55
